Experimental data published in patent publication US5563277A, “Process for preparing benzyl-substituted rhodanine derivatives” (Eli Lilly and Company, priority 1994, dated 1996).

Test system: Acetic Acid Induced Colitis
Test: Inhibition of Acetic Acid Induced Colitis
Assay type: in vivo, Male Sprague-Dawley rats
Details: rat; 30 mg/kg oral, 2 h before 2 ml of 2.5% acetic acid intracolonic enema, second dose 6 h after enema; colon lesions scored 0-4 twenty four hours later vs vehicle
Procedure: As noted above, the present invention provides a method of treating inflammatory bowel disease in mammals.
Male Sprague-Dawley rats from Charles River Laboratories, Portage, Mich. (weight approximately 250 g) were dosed orally with test compound (30 mg/kg) or vehicle (control). Two hours after dosing, each animal received 2 ml of a 2.5% acetic acid intracolonic enema via a cannula, the tip of which was placed 8 cm above the anal verge. This concentration of acetic acid produced a severe inflammatory response in the colon characterized by rectal bleeding, diarrhea, epithelial erosions and destructions of crypts and gland cells. Six hours from the enema the test animals were then given a second dose of test compound or vehicle. Twenty four hours later the test and control animals were killed and the distal ten centimeters of the colon were removed and opened longitudinally. The tissue lesions contained within the removed, opened, section of colon were scored by three independent blinded observers on a scale of 0 to 4 (zero=normal, four=worst inflammation). In each test group 5-7 rats were used. Test results from animals given test compound dissolved in vehicle were compared with test results from animals given vehicle alone in order to determine the percentage of lesion inhibition attributable to the test compound.

Structure (SMILES) | % Inhibition (percentage of lesion inhibition)
C[C@H](c1ccccc1)N1CS[C@H](Cc2cc(C(C)(C)C)c(O)c(C(C)(C)C)c2)C1=O [(3αR,5R)-5-[[3,5-bis(1,1-dimethylethyl)-4-hydroxyphenyl]methyl]-3-(1-phenylethyl)-4-thiazolidinone] | 30%
COC(=O)c1ccc(CN2CSC(Cc3cc(C(C)(C)C)c(O)c(C(C)(C)C)c3)C2=O)cc1 (stereo not shown) [5-[[3,5-bis(1,1-dimethylethyl)-4-hydroxyphenyl]methyl]-3-(carbomethoxybenzyl)-4-thiazolidinone] | 11%
CC(C)(C)c1cc(CC(S)C(=O)O)cc(C(C)(C)C)c1O (stereo not shown) [3-[3,5-bis(1,1-dimethylethyl)-4-hydroxyphenyl]-2-mercaptopropanoic acid] | 18%
C[C@H](c1ccccc1)N1CS[C@@H](Cc2cc(C(C)(C)C)c(O)c(C(C)(C)C)c2)C1=O [(3αR, 5S)-5-[[3,5-bis (1,1-dimethylethyl)-4-hydroxyphenyl]methyl]-3-(1-phenylethyl)-4-thiazolidinone] | 36%
